Laboratory results from patent publication US20040224958A1, “Pyridopyrimidinone derivatives for treatment of neurodegenerative disease” (priority 2000, published 2004).
Like-named read-outs stand apart in the source and are kept apart here.

How the values were obtained:
cdk4/D = cdk4/D (Homo sapiens, UniProt P11802); test: Cyclin-Dependent Kinase 4 (cdk4) Assay; type: biochemical; conditions: read-out: cdk4/D IC50
cdk2/cyclinA = cdk2/cyclinA (Homo sapiens, UniProt P24941); test: Cyclin-Dependent Kinase Assay cdk2/cyclinA
Cdk5/p25 = Cdk5/p25 (Homo sapiens, UniProt Q00535); test: Cyclin-Dependent Kinase 5 High Throughput Screening (cdk5-HTS) Assay; type: biochemical; conditions: high throughput screen
How it was run: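 IC50 determined from 33P incorporation into GST-RbCOOH captured on glutathione plates and read by scintillation counting. Reaction: 1.0 μg/mL Cdk5/p25, 20 μM [γ33P]ATP, pH 7.4 Tris buffer with MgCl2 and DTT, 30 min at room temperature, stopped with EDTA.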

cdk2/cyclinE = cdk2/cyclinE (Homo sapiens, UniProt P24941); test: Cyclin-Dependent Kinase Assay cdk2/cyclinE
cdc2/cyclinB = cdc2/cyclinB (Homo sapiens, UniProt P06493); test: Cyclin-Dependent Kinase Assay cdc2/cyclinB
Sequence of cdc2/cyclinB (P06493 whole entry): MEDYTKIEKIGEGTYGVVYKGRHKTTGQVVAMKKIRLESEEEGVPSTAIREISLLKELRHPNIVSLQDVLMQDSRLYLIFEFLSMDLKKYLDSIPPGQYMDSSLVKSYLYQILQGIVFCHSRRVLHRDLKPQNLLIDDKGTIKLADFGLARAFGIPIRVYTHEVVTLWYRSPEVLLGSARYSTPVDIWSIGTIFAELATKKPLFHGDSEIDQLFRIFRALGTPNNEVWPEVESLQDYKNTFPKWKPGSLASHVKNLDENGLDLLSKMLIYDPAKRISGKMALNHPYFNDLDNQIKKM
Sequence of cdc2/cyclinB (P14635 whole entry, further chain): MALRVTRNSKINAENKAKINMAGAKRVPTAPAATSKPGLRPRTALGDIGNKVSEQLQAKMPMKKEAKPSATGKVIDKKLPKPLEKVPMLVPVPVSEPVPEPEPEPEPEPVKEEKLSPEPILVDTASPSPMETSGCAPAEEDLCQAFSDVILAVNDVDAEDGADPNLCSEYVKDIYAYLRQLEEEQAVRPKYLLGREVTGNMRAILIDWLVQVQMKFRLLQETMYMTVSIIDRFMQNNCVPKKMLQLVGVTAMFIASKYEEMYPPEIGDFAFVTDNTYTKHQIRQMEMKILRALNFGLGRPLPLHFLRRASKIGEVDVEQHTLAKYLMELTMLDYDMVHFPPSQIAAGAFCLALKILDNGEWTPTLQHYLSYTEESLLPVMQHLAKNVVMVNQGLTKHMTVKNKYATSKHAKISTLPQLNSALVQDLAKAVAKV

Sequence of cdk4/D (P11802 whole entry): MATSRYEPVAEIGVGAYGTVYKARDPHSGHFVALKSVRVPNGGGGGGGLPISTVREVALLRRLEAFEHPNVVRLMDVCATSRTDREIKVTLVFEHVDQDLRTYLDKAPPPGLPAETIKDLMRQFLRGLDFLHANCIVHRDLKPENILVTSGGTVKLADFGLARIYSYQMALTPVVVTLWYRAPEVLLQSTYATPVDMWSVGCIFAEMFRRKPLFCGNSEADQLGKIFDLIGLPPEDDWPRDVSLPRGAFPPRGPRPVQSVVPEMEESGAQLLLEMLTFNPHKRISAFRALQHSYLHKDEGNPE
Sequence of cdk4/D (P24385 whole entry, further chain): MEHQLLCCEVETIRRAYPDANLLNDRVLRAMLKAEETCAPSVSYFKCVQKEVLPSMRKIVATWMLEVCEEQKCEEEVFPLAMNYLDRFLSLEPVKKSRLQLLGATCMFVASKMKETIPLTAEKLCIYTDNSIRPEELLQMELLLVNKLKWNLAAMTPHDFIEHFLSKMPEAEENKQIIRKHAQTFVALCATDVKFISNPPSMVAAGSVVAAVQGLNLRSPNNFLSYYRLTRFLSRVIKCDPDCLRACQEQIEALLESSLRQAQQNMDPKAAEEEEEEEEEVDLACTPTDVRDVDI

Molecule | IC50 (cdk4/D) | IC50 (cdk2/cyclinA; cdk2/A IC50) | IC50 (Cdk5/p25) | IC50 (cdk2/cyclinE; cdk2/E IC50) | IC50 (cdc2/cyclinB) | IC50 (cdk2/cyclinA; read-out: cdk2/A IC50) | IC50 (cdk2/cyclinE; read-out: cdk2/E IC50) | IC50 (cdc2/cyclinB; read-out: cdk1/B IC50)
O=c1ccc2cnc(Nc3ccc(O)c(Cl)c3)nc2n1CC1CC1 [Example 567, 2-(3-Chloro-4-hydroxy-phenylamino)-8-cyclopropylmethyl-8H-pyrido[2,3-d]pyrimidin-7-one] | 145 nM | 54.5 nM | 31.5 nM | 16.3 nM | 76 nM |  |  | 
O=c1ccc2cnc(Nc3cc(F)cc(F)c3)nc2n1C1CCCC1 [Example 548, 8-Cyclopentyl-2-(3,5-difluoro-phenylamino)-8H-pyrido[2,3-d]pyrimidin-7-one] | 180 nM | 200 nM | 99 nM | 180 nM | 290 nM |  |  | 
CCC(CC)n1c(=O)ccc2cnc(Nc3cccc([N+](=O)[O-])c3)nc21 [Example 498, 8-(1-Ethyl-propyl)-2-(3-nitro-phenylamino)-8H-pyrido[2,3-d]pyrimidin-7-one] | 170 nM | 200 nM | 68 nM | 47 nM | 49.5 nM |  |  | 
CC(C)n1c(=O)ccc2cnc(Nc3cc(Cl)c(O)c(Cl)c3)nc21 [Example 412, 2-(3,5-Dichloro-4-hydroxy-phenylamino)-8-isopropyl-8H-pyrido[2,3-d]pyrimidin-7-one] | 2000 nM | 713 nM | 278 nM | 512 nM | 715 nM |  |  | 
Cc1ccc(Nc2ncc3ccc(=O)n(C(C)C)c3n2)cc1C [Example 434, 2-(3,4-Dimethyl-phenylamino)-8-isopropyl-8H-pyrido[2,3-d]pyrimidin-7-one] | 350 nM | 400 nM | 54 nM | 520 nM | 470 nM |  |  | 
CCC(C)n1c(=O)ccc2cnc(Nc3ccc(Cl)c(C(F)(F)F)c3)nc21 (stereo not shown) [Example 468, 8-sec-Butyl-2-(4-chloro-3-trifluoromethyl-phenylamino)-8H-pyrido[2,3-d]pyrimidin-7-one] | 950 nM | 530 nM | 26.5 nM | 330 nM | 340 nM |  |  | 
CC(C)n1c(=O)ccc2cnc(Nc3ccc(F)c(C(F)(F)F)c3)nc21 [Example 407, 2-(4-Fluoro-3-trifluoromethyl-phenylamino)-8-isopropyl-8H-pyrido[2,3-d]pyrimidin-7-one] | 980 nM | 460 nM | 56 nM | 680 nM | 320 nM |  |  | 
CCCn1c(=O)ccc2cnc(Nc3ccc(I)c(Cl)c3)nc21 [Example 344, 2-(3-Chloro-4-iodo-phenylamino)-8-propyl-8H-pyrido[2,3-d]pyrimidin-7-one] | 370 nM | 990 nM | 46 nM | 470 nM | 360 nM |  |  | 
CC(C)n1c(=O)ccc2cnc(Nc3cc(Cl)cc(Cl)c3)nc21 [Example 429, 2-(3,5-Dichloro-phenylamino)-8-isopropyl-8H-pyrido[2,3-d]pyrimidin-7-one] | 560 nM | 860 nM | 39 nM | 120 nM | 230 nM |  |  | 
CCn1c(=O)ccc2cnc(Nc3ccc(C#N)cc3)nc21 [Example 304, 4-(8-Ethyl-7-oxo-7,8-dihydro-pyrido[2,3-d]pyrimidin-2-ylamino)-benzonitrile] | 2900 nM | 1500 nM | 980 nM | 1600 nM | 2200 nM |  |  | 
CCC(CC)n1c(=O)ccc2cnc(Nc3ccc(O)c(Cl)c3)nc21 [Example 496, 2-(3-Chloro-4-hydroxy-phenylamino)-8-(1-ethyl-propyl)-8H-pyrido[2,3-d]pyrimidin-7-one] | 280 nM | 89.5 nM | 17.5 nM | 31 nM | 24 nM |  |  | 
O=c1ccc2cnc(Nc3ccccc3)nc2n1CC(F)(F)F [Example 601, 2-Phenylamino-8-(2,2,2-trifluoro-ethyl)-8H-pyrido[2,3-d]pyrimidin-7-one] | 1450 nM | 2850 nM | 400 nM | 1200 nM | 1650 nM |  |  | 
CCC(C)n1c(=O)ccc2cnc(Nc3cc([N+](=O)[O-])ccc3F)nc21 (stereo not shown) [Example 459, 8-sec-Butyl-2-(2-fluoro-5-nitro-phenylamino)-8H-pyrido[2,3-d]pyrimidin-7-one] | 216 nM | 1200 nM | 196 nM | 316 nM | 491 nM |  |  | 
CC(C)n1c(=O)ccc2cnc(Nc3ccc4[nH]nnc4c3)nc21 [Example 410, 2-(1H-Benzotriazol-5-ylamino)-8-isopropyl-8H-pyrido[2,3-d]pyrimidin-7-one] | 152 nM | 135 nM | 44.5 nM | 88 nM | 245 nM |  |  | 
[4-(7-Oxo-8-propyl-7,8-dihydro-pyrido[2,3-d]pyrimidin-2-ylamino)-phenyl]-carbamic acid tert-butyl ester [Example 326] | 2100 nM |  | 460 nM |  |  | 2450 nM | 820 nM | 995 nM
CCn1c(=O)ccc2cnc(Nc3ccc4[nH]ncc4c3)nc21 [Example 286, 8-Ethyl-2-(1H-indazol-5-ylamino)-8H-pyrido[2,3-d]pyrimidin-7-one] | 475 nM | 630 nM | 108 nM | 223 nM | 275 nM |  |  | 
8-Cyclopropylmethyl-2-(1H-indazol-6-ylamino)-8H-pyrido[2,3-d]pyrimidin-7-one [Example 583] | 1300 nM |  | 105 nM |  |  | 260 nM | 200 nM | 355 nM
CCCCn1c(=O)ccc2cnc(Nc3ccc(OC)cc3)nc21 [Example 385, 8-Butyl-2-(4-methoxy-phenylamino)-8H-pyrido[2,3-d]pyrimidin-7-one] | 1140 nM | 320 nM | 130 nM | 150 nM | 155 nM |  |  | 
CCC(CC)n1c(=O)ccc2cnc(Nc3ccc(F)cc3F)nc21 [Example 483, 2-(2,4-Difluoro-phenylamino)-8-(1-ethyl-propyl)-8H-pyrido[2,3-d]pyrimidin-7-one] | 1330 nM | 1670 nM | 169 nM | 354 nM | 731 nM |  |  | 

The next molecules have a lower IC50 (cdk4/D) than those just listed; values first:

IC50 (cdk4/D) | IC50 (cdk2/cyclinA; cdk2/A IC50) | IC50 (Cdk5/p25) | IC50 (cdk2/cyclinE; cdk2/E IC50) | IC50 (cdc2/cyclinB) | Molecule | IC50 (cdk2/cyclinA; read-out: cdk2/A IC50) | IC50 (cdk2/cyclinE; read-out: cdk2/E IC50) | IC50 (cdc2/cyclinB; read-out: cdk1/B IC50)
140 nM | 590 nM | 21 nM | 160 nM | 160 nM | Cc1ccc(Nc2ncc3ccc(=O)n(C(C)C)c3n2)cc1I [Example 427, 2-(3-Iodo-4-methyl-phenylamino)-8-isopropyl-8H-pyrido[2,3-d]pyrimidin-7-one] |  |  | 
120 nM | 530 nM | 49 nM | 220 nM | 340 nM | CCC(C)n1c(=O)ccc2cnc(Nc3ccc(N(C)C(C)=O)cc3)nc21 (stereo not shown) [Example 471, N-[4-(8-sec-Butyl-7-oxo-7,8-dihydro-pyrido[2,3-d]pyrimidin-2-ylamino)-phenyl]-N-methyl-acetamide] |  |  | 
110 nM | 170 nM | 50.5 nM | 463 nM | 98.5 nM | CCC(C)n1c(=O)ccc2cnc(Nc3ccc(OC)cc3)nc21 (stereo not shown) [Example 455, 8-sec-Butyl-2-(4-methoxy-phenylamino)-8H-pyrido[2,3-d]pyrimidin-7-one] |  |  | 
110 nM | 41.5 nM | 13.5 nM | 22.3 nM | 59.5 nM | COc1ccc(Nc2ncc3ccc(=O)n(C4CCCC4)c3n2)cc1OC [Example 541, 8-Cyclopentyl-2-(3,4-dimethoxy-phenylamino)-8H-pyrido[2,3-d]pyrimidin-7-one] |  |  | 
98 nM | 140 nM | 39 nM | 100 nM | 170 nM | O=C1CSc2ccc(Nc3ncc4ccc(=O)n(CC5CC5)c4n3)cc2N1 [Example 584, 8-Cyclopropylmethyl-2-(3-oxo-3,4-dihydro-2H-1,4-benzothiazin-6-ylamino)-8H-pyrido[2,3-d]pyrimidin-7-one] |  |  | 
90 nM | 340 nM | 91 nM | 85 nM | 220 nM | CCCCn1c(=O)ccc2cnc(Nc3ccc(C#N)c(NC(C)=O)c3)nc21 [Example 395, N-[5-(8-Butyl-7-oxo-7,8-dihydro-pyrido[2,3-d]pyrimidin-2-ylamino)-2-cyano-phenyl]-acetamide] |  |  | 
65 nM | 15 nM | 8.8 nM | 5.1 nM | 29 nM | NS(=O)(=O)c1ccc(Nc2ncc3ccc(=O)n(CC4CC4)c3n2)cc1 [Example 571, 4-(8-Cyclopropylmethyl-7-oxo-7,8-dihydro-pyrido[2,3-d]pyrimidin-2-ylamino)-benzenesulfonamide] |  |  | 
58 nM | 580 nM | 35 nM | 120 nM | 140 nM | CCCn1c(=O)ccc2cnc(Nc3ccc(C)c(Cl)c3)nc21 [Example 347, 2-(3-Chloro-4-methyl-phenylamino)-8-propyl-8H-pyrido[2,3-d]pyrimidin-7-one] |  |  | 
35 nM | 240 nM | 15 nM | 95 nM | 180 nM | CC(C)n1c(=O)ccc2cnc(Nc3cccc(S(N)(=O)=O)c3)nc21 [Example 430, 3-(8-Isopropyl-7-oxo-7,8-dihydro-pyrido[2,3-d]pyrimidin-2-ylamino)-benzenesulfonamide] |  |  | 
14 nM | 170 nM | 13 nM | 49 nM | 62 nM | CCCn1c(=O)ccc2cnc(Nc3cccc(S(N)(=O)=O)c3)nc21 [Example 348, 3-(7-Oxo-8-propyl-7,8-dihydro-pyrido[2,3-d]pyrimidin-2-ylamino)-benzenesulfonamide] |  |  | 
